Biological target: 5-hydroxytryptamine receptor 3A (Mus musculus) (UniProt P23979)
Assay: Antagonist activity at 5HT3A receptor expressed in Xenopus oocyte

Chain of 5-hydroxytryptamine receptor 3A (Mus musculus) (P23979 whole entry, looked up): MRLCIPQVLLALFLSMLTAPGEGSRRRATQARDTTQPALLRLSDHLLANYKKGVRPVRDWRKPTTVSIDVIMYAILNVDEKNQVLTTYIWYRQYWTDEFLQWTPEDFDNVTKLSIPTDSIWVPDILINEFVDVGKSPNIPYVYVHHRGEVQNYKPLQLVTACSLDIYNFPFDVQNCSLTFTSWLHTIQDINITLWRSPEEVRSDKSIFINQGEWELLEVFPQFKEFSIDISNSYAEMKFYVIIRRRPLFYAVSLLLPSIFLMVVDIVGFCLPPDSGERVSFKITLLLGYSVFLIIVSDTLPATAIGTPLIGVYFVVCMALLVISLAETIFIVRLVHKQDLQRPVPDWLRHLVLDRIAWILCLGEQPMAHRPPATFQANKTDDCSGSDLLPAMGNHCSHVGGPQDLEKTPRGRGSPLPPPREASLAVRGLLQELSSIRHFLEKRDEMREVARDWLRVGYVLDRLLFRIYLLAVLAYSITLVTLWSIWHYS

In order of falling IC50:
1. O=C(NCCN1CCOCC1)c1ccc2c(=O)n(-c3ccc(F)cc3)c(=O)[nH]c2c1  57 µM
2. O=C(NCCN1CCOCC1)c1ccc2c(=O)n(Cc3ccc(F)cc3)c(=O)[nH]c2c1  19.8 µM
3. O=C(NCCN1CCOCC1)c1ccc2c(=O)n(Cc3ccc(Cl)cc3)c(=O)[nH]c2c1  15.8 µM
4. CCC1CCCCN1CCNC(=O)c1ccc2c(=O)n(Cc3ccc(Cl)cc3)c(=O)[nH]c2c1 (configuration not stated)  13.6 µM
5. CC1CCCCN1CCCNC(=O)c1ccc2c(=O)n(Cc3ccc(Cl)cc3)c(=O)[nH]c2c1 (configuration not stated)  11.6 µM
6. CC1CCCCN1CCCNC(=O)c1ccc2c(=O)n(C3CCCCC3)c(=O)[nH]c2c1 (configuration not stated)  5.9 µM
7. O=C(NCCN1CCCCC1)c1ccc2c(=O)n(Cc3ccccc3Cl)c(=O)[nH]c2c1  2.1 µM
